# Data: US9856240B2, “Compounds that modulate intracellular calcium” (CalciMedica, Inc., priority 2011, dated 2018)
# How the values were obtained:
# [1] = target: T1, recombinant human STIM1 and Orai1 (HEK-293 cells) (Homo sapiens, UniProt Q96D31); assay: Fluorescence-based assay of store-operated calcium entry in Orai1/STIM1 stable cells; format: cell-based; set-up: key to Orai1/STIM1 (IC50, μmol): A < 0.6 μmol; 0.6 μmol ≦ B ≦ 1.2 μmol; C > 1.2 μmol; — = no fit; conditions: for IC50: FLIPR fluo-4, read-out: Orai1/STIM1 (IC50, μmol); for Orai1/STIM1 (IC50, μmol): FLIPR fluo-4
# T1 construct: expressed in transfected cells; host or cells: HEK-293 cells stably expressing both proteins
# T1 sequence (Q96D31 whole entry): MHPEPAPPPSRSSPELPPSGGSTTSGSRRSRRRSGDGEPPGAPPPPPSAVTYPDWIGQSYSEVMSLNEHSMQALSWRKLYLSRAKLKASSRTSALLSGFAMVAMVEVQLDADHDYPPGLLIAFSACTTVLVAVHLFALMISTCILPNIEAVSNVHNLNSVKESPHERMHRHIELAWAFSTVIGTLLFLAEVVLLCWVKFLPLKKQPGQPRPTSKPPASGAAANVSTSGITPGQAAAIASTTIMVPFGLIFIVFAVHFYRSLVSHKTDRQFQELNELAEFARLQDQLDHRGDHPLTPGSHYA
# Experimental: A. Fluorescence-Based Assay of Store-Operated Calcium Entry in Orai1/STIM1 Stable Cells.
# Cells stably expressing recombinant human STIM1 and Orai1 are generated by transfecting a human Orai1 expression plasmid (pcDNA3.1-Orai1-cmyc) into HEK-293 cells stably overexpressing human STIM1 (Roos et al. 2005 JCB 169(3): 435-445). Colonies of cells stably expressing both STIM1 and Orai1 proteins are selected and then subcloned by limiting dilution. Cells were cultured at 37° C./6% CO2 in complete medium with 10% FBS and appropriate selection markers.
# The day prior to performing the assay Orai1/STIM1 stable cells are plated in 50 μL of complete medium at 90-95% confluence in a 384 well plate. Cells are grown at 37° C./6% CO2 overnight. On the day of the assay, 1.5 μM fluo-4-AM (Invitrogen) in complete medium is added to the cells, which are then incubated for 1 hour at RT. Cells are washed once in Ca^2+-free HBSS (Hank's buffered saline solution) and 35 μl of Ca^2+-free HBSS is added to each well. Test compounds are added to wells in a 10 μL Ca^2+-free HBSS solution, prepared at 4.5× the desired final concentration, and incubated for 30 minutes at RT. The initial baseline fluorescence signal is then measured with a FLIPR^384 (Molecular Devices) plate reader. Calcium entry is initiated by adding 5 μl of 10× CaCl2 (10 mM) in HBSS, and changes in cellular fluorescence are measured with the FLIPR^384 plate reader. In each well, the magnitude of the fluorescence signal as a result of calcium entry into the cell is determined by calculating the difference between the peak fluorescence signal measured after calcium addition and the initial baseline fluorescence signal (designated Peak-Basal). IC50 values are typically calculated as the concentration that inhibited 50% of the Peak-Basal signal (Table A).
# [2] = system: store-operated calcium entry in RBL-2H3 cells; assay: Fluorescence-based assay of store-operated calcium entry in RBL-2H3 cells; format: cell-based; conditions: Rattus norvegicus, thapsigargin, FLIPR Fluo-4, read-out: RBL-2H3 (IC50, μmol)
# Experimental: B. Fluorescence-Based Assay of Store-Operated Calcium Entry in RBL-2H3 Cells.
# RBL-2H3 cells are obtained from ATCC and maintained in complete medium with 10% FBS at 37° C./6% CO2.
# The day prior to performing the assay, RBL-2H3 cells are plated in 50 μL of complete medium in a 384 well plate. Cells are grown at 37° C./6% CO2 overnight and grow to 50-60% confluence by the next day. On the assay day, 1.5 μM Fluo-4-AM dye (Invitrogen) in complete medium is added and incubated for 1 hour at RT. Cells are washed twice in Ca^2+-free HBSS buffer and 35 μL Ca^2+-free HBSS buffer is added to each well. 10 μL of a test compound prepared in a Ca^2+-free HBSS solution at 4.5× of the desired concentration is added to a well and incubated for 5 minutes at RT. 10 μL of thapsigargin prepared in a Ca^2+-free HBSS solution at 5.5× of the desired concentration (5.5 uM) is added to each well and incubated for an additional 25 minutes. The initial baseline fluorescence signal is measured with a FLIPR^384 (Molecular Devices) plate reader. 5 μL of 12× calcium in HBSS (12 mM) is added and changes in cellular fluorescence are measured with the FLIPR^384 plate reader. In each well, the change in the fluorescent signal as a function of time due to calcium entry into the cell is determined by calculating the difference between the fluorescent signal measured 7 seconds after calcium addition and the initial baseline fluorescence signal at time zero (t=0). This parameter is designated Upslope. The IC50 value is calculated as the concentration at which 50% of the Upslope is inhibited.
IC50 [1] [nM],IC50 [2] [nM],"Orai1/STIM1 (IC50, μmol) [1]",SMILES
< 600,< 600,,"Cc1nscc1C(=O)Nc1ccc(-c2cc3c(cc2Cl)OC(F)(F)O3)cn1 [Example 15, N-(5-(6-chloro-2,2-difluorobenzo[d][1,3]dioxol-5-yl)pyridin-2-yl)-3-methylisothiazole-4-carboxamide]"
600 to 1200,< 600,,"Cn1ncc(Cl)c1C(=O)Nc1ccc(-c2cc3c(cc2Cl)OC(F)(F)O3)cn1 [Example 9, 4-chloro-N-(5-(6-chloro-2,2-difluorobenzo[d][1,3]dioxol-5-yl)pyridin-2-yl)-1-methyl-1H-pyrazole-5-carboxamide]"
600 to 1200,< 600,,"Cc1noc(C)c1C(=O)Nc1cnc(-c2cc3c(cc2Cl)OC(F)(F)O3)cn1 [Example 31, N-(5-(6-chloro-2,2-difluorobenzo[d][1,3]dioxol-5-yl)pyrazin-2-yl)-3,5-dimethylisoxazole-4-carboxamide]"
600 to 1200,> 1200,,"Cc1cc(C(=O)Nc2cnc(-c3cc4c(cc3Cl)OC(F)(F)O4)cn2)n(C)n1 [Example 27, N-(5-(6-chloro-2,2-difluorobenzo[d][1,3]dioxol-5-yl)pyrazin-2-yl)-1,3-dimethyl-1H-pyrazole-5-carboxamide]"
,,—,"Cn1cc(Cl)c(C(=O)Nc2cnc(-c3cc4c(cc3Cl)OC(F)(F)O4)cn2)n1 [Example 28, 4-chloro-N-(5-(6-chloro-2,2-difluorobenzo[d][1,3]dioxol-5-yl)pyrazin-2-yl)-1-methyl-1H-pyrazole-3-carboxamide]"
600 to 1200,> 1200,,"Cc1cc(C(=O)Nc2ccc(-c3cc4c(cc3Cl)OC(F)(F)O4)cn2)n(C)n1 [Example 7, N-(5-(6-chloro-2,2-difluorobenzo[d][1,3]dioxol-5-yl)pyridin-2-yl)-1,3-dimethyl-1H-pyrazole-5-carboxamide]"
,,—,"Cc1oncc1C(=O)Nc1cnc(-c2cc3c(cc2Cl)OC(F)(F)O3)cn1 [Example 30, N-(5-(6-chloro-2,2-difluorobenzo[d][1,3]dioxol-5-yl)pyrazin-2-yl)-5-methylisoxazole-4-carboxamide]"
> 1200,< 600,,"Cc1nc(C(F)(F)F)c(C(=O)Nc2ccc(-c3cc4c(cc3Cl)OC(F)(F)O4)cn2)s1 [Example 17, N-(5-(6-chloro-2,2-difluorobenzo[d][1,3]dioxol-5-yl)pyridin-2-yl)-2-methyl-4-(trifluoromethyl)thiazole-5-carboxamide]"
,> 1200,,CCn1nc(C)cc1C(=O)Nc1cnc(-c2cc3c(cc2Cl)OC(F)(F)O3)cn1 [Example 26]
,,—,"Cc1nc(C(=O)Nc2ccc(-c3cc4c(cc3Cl)OC(F)(F)O4)cn2)c(C(F)(F)F)o1 [Example 19, N-(5-(6-chloro-2,2-difluorobenzo[d][1,3]dioxol-5-yl)pyridin-2-yl)-2-methyl-5-(trifluoromethyl)oxazole-4-carboxamide]"
600 to 1200,< 600,,"Cc1cc2c(cc1-c1cnc(NC(=O)c3c(Cl)c(C(F)(F)F)nn3C)cn1)OC(F)(F)O2 [Example 37, 4-chloro-N-(5-(2,2-difluoro-6-methylbenzo[d][1,3]dioxol-5-yl)pyrazin-2-yl)-1-methyl-3-(trifluoromethyl)-1H-pyrazole-5-carboxamide]"
,,—,"Cc1cc2c(cc1-c1cnc(NC(=O)c3c(Cl)c(C)nn3C)cn1)OC(F)(F)O2 [Example 36, 4-chloro-N-(5-(2,2-difluoro-6-methylbenzo[d][1,3]dioxol-5-yl)pyrazin-2-yl)-1,3-dimethyl-1H-pyrazole-5-carboxamide]"
> 1200,> 1200,,"Cc1nn(C)c(C(=O)Nc2cnc(-c3cc(C(F)(F)F)nn3C)cn2)c1Cl [Example 40, 4-chloro-1,3-dimethyl-N-(5-(1-methyl-3-(trifluoromethyl)-1H-pyrazol-5-yl)pyrazin-2-yl)-1H-pyrazole-5-carboxamide]"
,< 600,—,"Cn1nc(C(F)(F)F)c(Cl)c1C(=O)Nc1cnc(-c2cc3c(cc2Cl)OC(F)(F)O3)cn1 [Example 24, 4-chloro-N-(5-(6-chloro-2,2-difluorobenzo[d][1,3]dioxol-5-yl)pyrazin-2-yl)-1-methyl-3-(trifluoromethyl)-1H-pyrazole-5-carboxamide]"
> 1200,> 1200,,"Cn1nc(C(F)(F)F)cc1-c1cnc(NC(=O)c2c(Cl)c(C(F)(F)F)nn2C)cn1 [Example 41, 4-chloro-1-methyl-N-(5-(1-methyl-3-(trifluoromethyl)-1H-pyrazol-5-yl)pyrazin-2-yl)-3-(trifluoromethyl)-1H-pyrazole-5-carboxamide]"
,600 to 1200,—,"Cc1onc(C(=O)Nc2ccc(-c3cc4c(cc3Cl)OC(F)(F)O4)cn2)c1C [Example 5, N-(5-(6-chloro-2,2-difluorobenzo[d][1,3]dioxol-5-yl)pyridin-2-yl)-4,5-dimethylisoxazole-3-carboxamide]"
> 1200,< 600,,"Cc1cc2c(cc1-c1cnc(NC(=O)c3c(C)noc3C)cn1)OC(F)(F)O2 [Example 38, N-(5-(2,2-difluoro-6-methylbenzo[d][1,3]dioxol-5-yl)pyrazin-2-yl)-3,5-dimethylisoxazole-4-carboxamide]"
600 to 1200,> 1200,,"O=C(Nc1ccc(-c2cc3c(cc2Cl)OC(F)(F)O3)cn1)c1ccnn1C(F)F [Example 13, N-(5-(6-chloro-2,2-difluorobenzo[d][1,3]dioxol-5-yl)pyridin-2-yl)-1-(difluoromethyl)-1H-pyrazole-5-carboxamide]"
,> 1200,—,"Cn1ncc(C(=O)Nc2ccc(-c3cc4c(cc3Cl)OC(F)(F)O4)cn2)c1C(F)(F)F [Example 4, N-(5-(6-chloro-2,2-difluorobenzo[d][1,3]dioxol-5-yl)pyridin-2-yl)-1-methyl-5-(trifluoromethyl)-1H-pyrazole-4-carboxamide]"
> 1200,> 1200,,"Cc1nn(C)c(C(=O)Nc2ccc(-c3cc4c(cc3Cl)OC(F)(F)O4)cn2)c1Cl [Example 2, 4-chloro-N-(5-(6-chloro-2,2-difluorobenzo[d][1,3]dioxol-5-yl)pyridin-2-yl)-1,3-dimethyl-1H-pyrazole-5-carboxamide]"
> 1200,,,"Cc1nc(C)c(C(=O)Nc2ccc(-c3cc4c(cc3Cl)OC(F)(F)O4)cn2)o1 [Example 21, N-(5-(6-chloro-2,2-difluorobenzo[d][1,3]dioxol-5-yl)pyridin-2-yl)-2,4-dimethyloxazole-5-carboxamide]"
,,—,"Cc1oncc1C(=O)Nc1ccc(-c2cc3c(cc2Cl)OC(F)(F)O3)cn1 [Example 10, N-(5-(6-chloro-2,2-difluorobenzo[d][1,3]dioxol-5-yl)pyridin-2-yl)-5-methylisoxazole-4-carboxamide]"
,,—,"Cn1ncc(C(=O)Nc2cnc(-c3cc4c(cc3Cl)OC(F)(F)O4)cn2)c1C(F)(F)F [Example 22, N-(5-(6-chloro-2,2-difluorobenzo[d][1,3]dioxol-5-yl)pyrazin-2-yl)-1-methyl-5-(trifluoromethyl)-1H-pyrazole-4-carboxamide]"
,,—,"Cc1nn(C)c(C(=O)Nc2cnc(-c3cc4c(cc3Cl)OC(F)(F)O4)cn2)c1Cl [Example 23, 4-chloro-N-(5-(6-chloro-2,2-difluorobenzo[d][1,3]dioxol-5-yl)pyrazin-2-yl)-1,3-dimethyl-1H-pyrazole-5-carboxamide]"
